Patent publication US20250034150A1, “BTK INHIBITORS” (BIOGEN MA INC., priority 2021, published 2025)
Like-named read-outs stand apart in the source and are kept apart here.

Experiments:
BTK = target: T1, BTK (Homo sapiens, UniProt Q06187); assay: In Vitro BTK Kinase Assay: Btk-PolyGAT-LS Assay; assay type: biochemical; conditions: active BTK enzyme 0.25 nM, polyGAT 100 nM, 30 minutes, TRF readout; read-out: In Vitro BTK Kinase Assay IC50 Score
T1 construct: purchased Upstate 14-552
Outline: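 Active BTK at 0.25 nM phosphorylated 100 nM fluorescein-polyGAT peptide at 10 μM ATP for 30 minutes. Buffer was Tris pH 7.5 with MgCl2, DTT, Triton X-100 and casein, and reactions were stopped with EDTA. Phospho-peptide was detected by Tb-PY20 antibody TR-FRET, and IC50 came from a four-parameter fit normalized to DMSO and EDTA controls.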

[1] = test system: CD69 expression on CD19+ B cells in human whole blood; assay: In Vitro whole blood CD69 Assay; assay type: cell-based; conditions: B-cell, read-out: In Vitro HWB CD69 Assay IC50 Score
Outline: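 Heparinized healthy-donor human whole blood was preincubated with compound (0.1% DMSO) for 30 min at 37 °C. Stimulation used 0.1 µg/mL anti-IgD-dextran or 20 µg/mL rabbit F(ab′)2 anti-IgD for 18–22 h at 37 °C. CD69 on gated CD19+ B cells was then measured by flow cytometry.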

[2] = human heparinized whole blood, anti-human IgD stimulation overnight, CD19+ B cells, flow cytometry

T1 sequence (Q06187 whole entry): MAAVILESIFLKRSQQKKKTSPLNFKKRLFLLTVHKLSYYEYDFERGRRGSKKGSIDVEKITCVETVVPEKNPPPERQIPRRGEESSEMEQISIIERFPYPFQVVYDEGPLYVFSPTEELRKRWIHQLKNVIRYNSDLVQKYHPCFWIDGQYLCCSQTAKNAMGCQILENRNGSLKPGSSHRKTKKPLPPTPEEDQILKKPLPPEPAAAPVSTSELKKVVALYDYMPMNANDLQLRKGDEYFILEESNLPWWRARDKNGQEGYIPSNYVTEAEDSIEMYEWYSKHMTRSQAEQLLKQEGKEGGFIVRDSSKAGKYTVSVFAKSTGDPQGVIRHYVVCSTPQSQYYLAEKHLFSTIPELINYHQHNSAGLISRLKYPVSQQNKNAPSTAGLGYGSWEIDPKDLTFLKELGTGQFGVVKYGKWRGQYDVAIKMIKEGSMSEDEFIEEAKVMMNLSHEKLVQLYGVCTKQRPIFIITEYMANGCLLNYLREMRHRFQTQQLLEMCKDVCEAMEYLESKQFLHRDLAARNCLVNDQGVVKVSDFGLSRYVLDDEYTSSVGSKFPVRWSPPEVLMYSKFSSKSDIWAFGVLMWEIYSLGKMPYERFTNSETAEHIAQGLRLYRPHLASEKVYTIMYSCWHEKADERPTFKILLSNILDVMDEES

Compound	IC50 (BTK)	IC50 [1, 2]	IC50 ([1]; Homo sapiens)
Cn1cc(-c2cn3nccc3c(-c3cc(F)c(CNC(=O)c4coc(C(C)(C)C)n4)cc3F)n2)cn1 [Example 95, 2-(tert-butyl)-N-(2,5-difluoro-4-(6-(1-methyl-1H-pyrazol-4-yl)pyrazolo[1,5-a]pyrazin-4-yl)benzyl)oxazole-4-carboxamide]	1 to 10 nM	1000 to 10000 nM	
Cc1cc(-c2nc(-c3cnn(C)c3)cn3nccc23)ccc1CN1CCN(CC(C)C)CC1=O [Example 30, 4-isobutyl-1-(2-methyl-4-(6-(1-methyl-1H-pyrazol-4-yl)pyrazolo[1,5-a]pyrazin-4-yl)benzyl)piperazin-2-one]	1 to 10 nM	1000 to 10000 nM	
Cn1cc(-c2cn3nccc3c(-c3ccc(CNC(=O)c4nc(C(C)(C)C)no4)cc3)n2)cn1 [Example 19, 3-(tert-butyl)-N-(4-(6-(1-methyl-1H-pyrazol-4-yl)pyrazolo[1,5-a]pyrazin-4-yl)benzyl)-1,2,4-oxadiazole-5-carboxamide]	< 1 nM	< 1000 nM	
Cc1cc(-c2nc(-c3cnn(C)c3)cn3nccc23)ccc1CNC(=O)c1nnn(C(C)(C)C)n1 [Example 15, 2-(tert-butyl)-N-(2-methyl-4-(6-(1-methyl-1H-pyrazol-4-yl)pyrazolo[1,5-a]pyrazin-4-yl)benzyl)-2H-tetrazole-5-carboxamide]	< 1 nM	< 1000 nM	
Cn1cc(-c2cn3ncnc3c(N3CCC(CNC(=O)c4cn(C(C)(C)C)nn4)CC3)n2)cn1 [Example 74, 1-(tert-butyl)-N-((1-(6-(1-methyl-1H-pyrazol-4-yl)-[1,2,4]triazolo[1,5-a]pyrazin-8-yl)piperidin-4-yl)methyl)-1H-1,2,3-triazole-4-carboxamide]	10 to 1000 nM	1000 to 10000 nM	
Cn1cc(-c2cc3nccn3c(-c3ccc(CNC(=O)c4cn(C(C)(C)C)nn4)cc3)n2)cn1 [Example 59, 1-(tert-butyl)-N-(4-(7-(1-methyl-1H-pyrazol-4-yl)imidazo[1,2-c]pyrimidin-5-yl)benzyl)-1H-1,2,3-triazole-4-carboxamide]	1 to 10 nM	< 1000 nM	
Cc1cc(-c2nccn3nccc23)ccc1CNC(=O)c1noc(C(C)(C)C)n1 [Example 85, 5-(tert-butyl)-N-(2-methyl-4-(pyrazolo[1,5-a]pyrazin-4-yl)benzyl)-1,2,4-oxadiazole-3-carboxamide]	1 to 10 nM	1000 to 10000 nM	
C[C@@H]1C(c2nc(C(=O)NCc3ccc(-c4nc(-c5cnn(C)c5)cc5nccn45)cc3)no2)[C@@H]1C (mixture of isomers) [Example 62, 5-(2,3-cis-dimethylcyclopropyl)-N-(4-(7-(1-methyl-1H-pyrazol-4-yl)imidazo[1,2-c]pyrimidin-5-yl)benzyl)-1,2,4-oxadiazole-3-carboxamide]	1 to 10 nM		1000 to 10000 nM
CC(C)(C)c1nc(C(=O)NCc2ccc(-c3nccn4nccc34)cc2Cl)no1 [Example 82, 5-(tert-butyl)-N-(2-chloro-4-(pyrazolo[1,5-a]pyrazin-4-yl)benzyl)-1,2,4-oxadiazole-3-carboxamide]	1 to 10 nM	1000 to 10000 nM	
Cc1c(CNC(=O)c2noc(C(C)(C)C)n2)ccc(-c2nc(-c3cnn(C)c3)cn3nccc23)c1F [Example 81, 5-(tert-butyl)-N-(3-fluoro-2-methyl-4-(6-(1-methyl-1H-pyrazol-4-yl)pyrazolo[1,5-a]pyrazin-4-yl)benzyl)-1,2,4-oxadiazole-3-carboxamide]	< 1 nM	< 1000 nM	
Cc1cc(-c2nc(-c3cnn(C)c3)cc3nccn23)ccc1CN1Cc2nc(C(C)(C)C)sc2C1=O [Example 38, 2-(tert-butyl)-5-(2-methyl-4-(7-(1-methyl-1H-pyrazol-4-yl)imidazo[1,2-c]pyrimidin-5-yl)benzyl)-4,5-dihydro-6H-pyrrolo[3,4-d]thiazol-6-one]	< 1 nM	1000 to 10000 nM	
Cn1cc(-c2cn3nccc3c(-c3ccc(CNC(=O)c4noc(C5(C)CC5)n4)c(F)c3)n2)cn1 [Example 8, N-(2-fluoro-4-(6-(1-methyl-1H-pyrazol-4-yl)pyrazolo[1,5-a]pyrazin-4-yl)benzyl)-5-(1-methylcyclopropyl)-1,2,4-oxadiazole-3-carboxamide]	< 1 nM	< 1000 nM	
Cc1cc(-c2nc(-c3cnn(C)c3)cn3nccc23)ccc1CNC(=O)c1nnc(C(C)(C)C)o1 [Example 14, 5-(tert-butyl)-N-(2-methyl-4-(6-(1-methyl-1H-pyrazol-4-yl)pyrazolo[1,5-a]pyrazin-4-yl)benzyl)-1,3,4-oxadiazole-2-carboxamide]	< 1 nM		< 1000 nM

The next lines start with results.

IC50 (BTK)	IC50 [1, 2]	Compound	IC50 ([1]; Homo sapiens)
1 to 10 nM	1000 to 10000 nM	Cn1cc(-c2cn3nccc3c(N3CCC(CNC(=O)c4cn(C(C)(C)C)nn4)CC3)n2)cn1 [Example 138, 1-(tert-butyl)-N-((1-(6-(1-methyl-1H-pyrazol-4-yl)pyrazolo[1,5-a]pyrazin-4-yl)piperidin-4-yl)methyl)-1H-1,2,3-triazole-4-carboxamide]	
1 to 10 nM	1000 to 10000 nM	Cn1cc(-c2cn3nccc3c(-c3cc(F)c(CNC(=O)c4cnn(C(C)(C)C)n4)cc3F)n2)cn1 [Example 97, 2-(tert-butyl)-N-(2,5-difluoro-4-(6-(1-methyl-1H-pyrazol-4-yl)pyrazolo[1,5-a]pyrazin-4-yl)benzyl)-2H-1,2,3-triazole-4-carboxamide]	
< 1 nM	< 1000 nM	Cn1cc(-c2cn3nccc3c(-c3ccc(CNC(=O)c4nc(C(C)(C)C)no4)cc3F)n2)cn1 [Example 108, 3-(tert-butyl)-N-(3-fluoro-4-(6-(1-methyl-1H-pyrazol-4-yl)pyrazolo[1,5-a]pyrazin-4-yl)benzyl)-1,2,4-oxadiazole-5-carboxamide]	
1 to 10 nM	1000 to 10000 nM	Cn1cc(-c2cn3nccc3c(N3CC[C@H](CNC(=O)c4coc(C(C)(C)C)n4)[C@H](F)C3)n2)cn1 [Example 153, 2-(tert-butyl)-N-(((3S,4R)-3-fluoro-1-(6-(1-methyl-1H-pyrazol-4-yl)pyrazolo[1,5-a]pyrazin-4-yl)piperidin-4-yl)methyl)oxazole-4-carboxamide]	
1 to 10 nM	1000 to 10000 nM	CC1CC(CNC(=O)c2noc(C3(C)CC3)n2)CCN1c1nc(-c2cnn(C)c2)cn2nccc12 (stereo not shown) [Example 139, N-((2-methyl-1-(6-(1-methyl-1H-pyrazol-4-yl)pyrazolo[1,5-a]pyrazin-4-yl)piperidin-4-yl)methyl)-5-(1-methylcyclopropyl)-1,2,4-oxadiazole-3-carboxamide]	
1 to 10 nM	1000 to 10000 nM	Cn1cc(-c2cn3nccc3c(-c3ccc(CNC(=O)c4cn(C(C)(C)C)nn4)cc3F)n2)cn1 [Example 112, 1-(tert-butyl)-N-(3-fluoro-4-(6-(1-methyl-1H-pyrazol-4-yl)pyrazolo[1,5-a]pyrazin-4-yl)benzyl)-1H-1,2,3-triazole-4-carboxamide]	
10 to 1000 nM	1000 to 10000 nM	Cn1cc(-c2cn3nccc3c(N3CCC(CN4CCN(CC(C)(C)C)CC4=O)CC3)n2)cn1 [Example 172, 1-((1-(6-(1-methyl-1H-pyrazol-4-yl)pyrazolo[1,5-a]pyrazin-4-yl)piperidin-4-yl)methyl)-4-neopentylpiperazin-2-one]	
1 to 10 nM	1000 to 10000 nM	CC1CN(c2nc(-c3cnn(C)c3)cn3nccc23)CCC1CNC(=O)c1noc(C2(C)CC2)n1 (stereo not shown) [Example 149, N-((3-methyl-1-(6-(1-methyl-1H-pyrazol-4-yl)pyrazolo[1,5-a]pyrazin-4-yl)piperidin-4-yl)methyl)-5-(1-methylcyclopropyl)-1,2,4-oxadiazole-3-carboxamide]	
10 to 1000 nM	1000 to 10000 nM	Cn1cc(-c2cn3nccc3c(N3CC[C@H](CNC(=O)c4noc(C5(C)CC5)n4)[C@H](F)C3)n2)cn1 [Example 154, N-(((3S,4R)-3-fluoro-1-(6-(1-methyl-1H-pyrazol-4-yl)pyrazolo[1,5-a]pyrazin-4-yl)piperidin-4-yl)methyl)-5-(1-methylcyclopropyl)-1,2,4-oxadiazole-3-carboxamide]	
< 1 nM	< 1000 nM	Cn1cc(-c2cn3nccc3c(-c3ccc(CNC(=O)c4cnn(C(C)(C)C)c4)c(C(F)F)c3)n2)cn1 [Example 107, 1-(tert-butyl)-N-(2-(difluoromethyl)-4-(6-(1-methyl-1H-pyrazol-4-yl)pyrazolo[1,5-a]pyrazin-4-yl)benzyl)-1H-pyrazole-4-carboxamide]	
1 to 10 nM	1000 to 10000 nM	Cn1cc(-c2cn3nccc3c(-c3ccc(CNC(=O)c4nc(C(C)(C)C)co4)cc3F)n2)cn1 [Example 110, 4-(tert-butyl)-N-(3-fluoro-4-(6-(1-methyl-1H-pyrazol-4-yl)pyrazolo[1,5-a]pyrazin-4-yl)benzyl)oxazole-2-carboxamide]	
< 1 nM	< 1000 nM	Cn1cc(-c2cn3nccc3c(-c3ccc(CNC(=O)c4noc(C(C)(C)C)n4)c(F)c3)n2)cn1 [Example 117, 5-(tert-butyl)-N-(2-fluoro-4-(6-(1-methyl-1H-pyrazol-4-yl)pyrazolo[1,5-a]pyrazin-4-yl)benzyl)-1,2,4-oxadiazole-3-carboxamide]	
< 1 nM	< 1000 nM	Cn1cc(-c2cn3nccc3c(-c3cc(F)c(CNC(=O)c4nnn(C(C)(C)C)n4)cc3F)n2)cn1 [Example 99, 2-(tert-butyl)-N-(2,5-difluoro-4-(6-(1-methyl-1H-pyrazol-4-yl)pyrazolo[1,5-a]pyrazin-4-yl)benzyl)-2H-tetrazole-5-carboxamide]	
